Assay results from patent US20240391936A1, “TETRAHYDROTHIENO PYRIDINE DERIVATIVES AS DDRS INHIBITORS” (CHIESI FARMACEUTICI S.P.A., priority 2021, published 2024).

How the values were obtained:
[1] = biological target: T1, DDR1 (Homo sapiens, UniProt Q08345); test: DDR1 binding assay (LanthaScreen Europium Kinase Binding assay); set-up: purchased Carna Biosciences; conditions: binding assay, 5 nM DDR1, 20 nM Kinase Tracer 178; Ki from IC50 by Cheng-Prusoff; read-out: Ki DDR1
Description: (§1) DDR1 and DDR2 binding assays were performed using Life Technologies LanthaScreen™ Europium Kinase Binding assay. The compounds were incubated with 5 nM DDR1 (Carna Biosciences) or 5 nM DDR2 (Life Technologies) for 1 hour at room temperature in white 384-well OptiPlate (PerkinElmer), containing 20 nM or 10 nM Kinase Tracer 178 respectively and 2 nM Europium labelled anti-GST antibody (Life Technologies) in assay buffer (50 mM HEPES pH 7.5, 10 mM MgCl2, 1 mM EGTA and 0.01% BRIJ35).
(§2) The ratio of fluorescence emission 665 nm/615 nm after excitation at 340 nm was obtained using the Tecan Spark 20M plate reader. IC50 values were determined in GraphPad Prism 7.0 software, using 4 parameter model: log(inhibitor) vs. response. IC50 values were converted in Ki using the Cheng-Prusoff equation

[2] = biological target: T2, DDR2 (Homo sapiens, UniProt Q16832); test: DDR2 binding assay (LanthaScreen Europium Kinase Binding assay); set-up: purchased Life Technologies; conditions: binding assay, 5 nM DDR2, 10 nM Kinase Tracer 178; Ki from IC50 by Cheng-Prusoff; read-out: Ki DDR2
T2 sequence (Q16832 22-855): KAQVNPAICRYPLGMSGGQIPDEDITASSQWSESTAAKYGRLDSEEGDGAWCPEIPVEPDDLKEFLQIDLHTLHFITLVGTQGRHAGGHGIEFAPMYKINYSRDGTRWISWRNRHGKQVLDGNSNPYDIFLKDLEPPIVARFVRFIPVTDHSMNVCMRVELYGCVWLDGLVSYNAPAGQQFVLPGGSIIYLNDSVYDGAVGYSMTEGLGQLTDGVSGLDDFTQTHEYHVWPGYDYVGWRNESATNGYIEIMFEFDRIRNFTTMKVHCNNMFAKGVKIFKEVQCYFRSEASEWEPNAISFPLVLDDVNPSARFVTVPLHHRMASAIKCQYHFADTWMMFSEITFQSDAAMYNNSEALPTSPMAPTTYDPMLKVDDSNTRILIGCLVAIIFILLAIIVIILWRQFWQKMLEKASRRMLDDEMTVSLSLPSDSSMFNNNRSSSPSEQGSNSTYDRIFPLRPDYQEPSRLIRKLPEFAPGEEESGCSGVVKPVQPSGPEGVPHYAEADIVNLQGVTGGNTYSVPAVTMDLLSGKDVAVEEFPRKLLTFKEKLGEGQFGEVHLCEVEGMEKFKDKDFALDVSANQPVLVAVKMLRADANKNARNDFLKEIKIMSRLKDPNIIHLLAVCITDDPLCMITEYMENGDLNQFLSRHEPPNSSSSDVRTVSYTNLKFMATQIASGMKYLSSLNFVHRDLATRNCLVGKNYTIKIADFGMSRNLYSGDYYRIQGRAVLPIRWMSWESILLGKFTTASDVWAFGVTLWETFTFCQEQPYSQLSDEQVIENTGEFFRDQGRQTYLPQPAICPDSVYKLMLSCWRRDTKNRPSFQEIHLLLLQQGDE
Description: as §1, §2

[3] = biological target: T1, DDR1; test: DDR1 cell based assay (PathHunter U2OS DDR1 assay); set-up: host or cells: U2OS-DDR1 (PathHunter); conditions: U2OS-DDR1 cells, bovine Type II Collagen 20 μg/ml
Description: The inhibition of DDR1 receptor activation by compounds was evaluated by PathHunter® U2OS DDR1 assay (Eurofins DiscoverX), according to the manufacturer's instructions. Briefly, U2OS-DDR1 cells were seeded in white 384-well plates at a density of 5000 cells/well and incubated for 2 hours at 37° C. and 5% CO2. Cells were then treated with compounds at different concentrations and incubated for 30 minutes, before stimulation with bovine Type II Collagen 20 μg/ml and incubation overnight at 37° C. and 5% CO2. PathHunter Detection Reagents were prepared according to the protocol provided by DiscoverX and 20 μl/well of this mix were added to each well. After incubating the plates for 1 hour at room temperature in the dark, luminescence signal was acquired with a plate reader. Raw data were normalized to vehicle control (0% for normalization) and positive control (100% for normalization; cells treated with 20 μg/ml collagen II) and IC50 parameters were calculated in GraphPad Prism 8.0 software, using sigmoidal dose-response curve fitting with variable slope.

T1 sequence (Q08345 19-913): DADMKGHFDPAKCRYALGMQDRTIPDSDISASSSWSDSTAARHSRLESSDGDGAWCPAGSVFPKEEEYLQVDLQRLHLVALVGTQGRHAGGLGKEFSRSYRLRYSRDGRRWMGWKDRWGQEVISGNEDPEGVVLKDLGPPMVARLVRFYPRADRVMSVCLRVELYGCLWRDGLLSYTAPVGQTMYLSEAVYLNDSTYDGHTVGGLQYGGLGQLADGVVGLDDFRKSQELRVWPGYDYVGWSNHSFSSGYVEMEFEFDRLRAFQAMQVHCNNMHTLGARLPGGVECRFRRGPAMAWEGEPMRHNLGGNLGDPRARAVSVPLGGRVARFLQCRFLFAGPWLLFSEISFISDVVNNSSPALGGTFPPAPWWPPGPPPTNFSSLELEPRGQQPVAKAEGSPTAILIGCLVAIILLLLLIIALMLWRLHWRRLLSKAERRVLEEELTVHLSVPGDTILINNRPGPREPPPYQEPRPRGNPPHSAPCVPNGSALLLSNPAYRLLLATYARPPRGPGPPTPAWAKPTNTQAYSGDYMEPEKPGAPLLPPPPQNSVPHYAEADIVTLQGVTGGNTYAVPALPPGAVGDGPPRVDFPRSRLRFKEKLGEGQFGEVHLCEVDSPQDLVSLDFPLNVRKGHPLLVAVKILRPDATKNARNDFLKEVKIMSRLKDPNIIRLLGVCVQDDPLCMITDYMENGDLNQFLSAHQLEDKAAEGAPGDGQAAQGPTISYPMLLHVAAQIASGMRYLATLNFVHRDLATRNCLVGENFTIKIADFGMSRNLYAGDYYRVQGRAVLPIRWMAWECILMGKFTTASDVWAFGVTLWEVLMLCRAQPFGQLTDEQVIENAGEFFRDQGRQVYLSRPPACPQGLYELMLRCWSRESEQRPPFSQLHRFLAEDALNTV

| Ki [1] [nM] | Ki [2] [nM] | IC50 [3] [nM] | SMILES |
| --- | --- | --- | --- |
| < 25 | < 25 | < 25 | CC(C)(C)c1cc(NC(=O)c2csc3c2CCN(C(=O)c2cnc4ccccn24)C3)on1 [Example 34, N-(3-(tert-butyl)isoxazol-5-yl)-6-(imidazo[1,2-a]pyridine-3-carbonyl)-4,5,6,7-tetrahydrothieno[2,3-c]pyridine-3-carboxamide] |
| < 25 | < 25 | 25 to 50 | Cn1nc(C2CCC2)cc1NC(=O)c1csc2c1CCN(C(=O)c1cnc3ccccn13)C2 [Example 35, N-(3-cyclobutyl-1-methyl-1H-pyrazol-5-yl)-6-(imidazo[1,2-a]pyridine-3-carbonyl)-4,5,6,7-tetrahydrothieno[2,3-c]pyridine-3-carboxamide] |
| < 25 | < 25 | 50 to 80 | CC(C)c1cc(NC(=O)c2csc3c2CCN(C(=O)c2cnc4ccccn24)C3)n(C)n1 [Example 36, 6-(imidazo[1,2-a]pyridine-3-carbonyl)-N-(3-isopropyl-1-methyl-1H-pyrazol-5-yl)-4,5,6,7-tetrahydrothieno[2,3-c]pyridine-3-carboxamide] |
| < 25 | < 25 | 25 to 50 | CC(C)(C)c1cc(NC(=O)c2csc3c2CCN(C(=O)c2cnc4ccccn24)C3)ccn1 [Example 37, N-(2-(tert-butyl)pyridin-4-yl)-6-(imidazo[1,2-a]pyridine-3-carbonyl)-4,5,6,7-tetrahydrothieno[2,3-c]pyridine-3-carboxamide] |
| < 25 | < 25 | 25 to 50 | CC(C)n1nc(C(C)(C)C)cc1NC(=O)c1csc2c1CCN(C(=O)c1cnc3ccccn13)C2 [Example 38, N-(3-(tert-butyl)-1-isopropyl-1H-pyrazol-5-yl)-6-(imidazo[1,2-a]pyridine-3-carbonyl)-4,5,6,7-tetrahydrothieno[2,3-c]pyridine-3-carboxamide] |
| < 25 | < 25 | 25 to 50 | CCCc1cc(NC(=O)c2csc3c2CCN(C(=O)c2cnc4ccccn24)C3)n(C)n1 [Example 39, 6-(imidazo[1,2-a]pyridine-3-carbonyl)-N-(1-methyl-3-propyl-1H-pyrazol-5-yl)-4,5,6,7-tetrahydrothieno[2,3-c]pyridine-3-carboxamide] |
| < 25 | < 25 | 25 to 50 | CC(C)(C)c1cc(NC(=O)c2csc3c2CCN(C(=O)c2cnc4ccccn24)C3)n(CC(F)(F)F)n1 [Example 40, N-(3-(tert-butyl)-1-(2,2,2-trifluoroethyl)-1H-pyrazol-5-yl)-6-(imidazo[1,2-a]pyridine-3-carbonyl)-4,5,6,7-tetrahydrothieno[2,3-c]pyridine-3-carboxamide] |
| < 25 | < 25 | 25 to 50 | CC(C)(C)c1cc(NC(=O)c2csc3c2CCN(C(=O)c2cnc4ccccn24)C3)n(Cc2ccccc2)n1 [Example 41, N-(1-benzyl-3-(tert-butyl)-1H-pyrazol-5-yl)-6-(imidazo[1,2-a]pyridine-3-carbonyl)-4,5,6,7-tetrahydrothieno[2,3-c]pyridine-3-carboxamide] |
| < 25 | < 25 | 50 to 80 | CCn1nc(C(C)(C)C)cc1NC(=O)c1csc2c1CCN(C(=O)c1cnc3ccccn13)C2 [Example 42, N-(3-(tert-butyl)-1-ethyl-1H-pyrazol-5-yl)-6-(imidazo[1,2-a]pyridine-3-carbonyl)-4,5,6,7-tetrahydrothieno[2,3-c]pyridine-3-carboxamide] |
| < 25 | < 25 | 25 to 50 | CC(C)Cc1cc(NC(=O)c2csc3c2CCN(C(=O)c2cnc4ccccn24)C3)n(C)n1 [Example 43, 6-(imidazo[1,2-a]pyridine-3-carbonyl)-N-(3-isobutyl-1-methyl-1H-pyrazol-5-yl)-4,5,6,7-tetrahydrothieno[2,3-c]pyridine-3-carboxamide] |
| < 25 | < 25 | 25 to 50 | CN(C)[C@H]1CCN(Cc2cc(NC(=O)c3csc4c3CCN(C(=O)c3cnc5ccccn35)C4)cc(C(F)(F)F)c2)C1 [Example 44, (S)-N-(3-((3-(dimethylamino)pyrrolidin-1-yl)methyl)-5-(trifluoromethyl)phenyl)-6-(imidazo[1,2-a]pyridine-3-carbonyl)-4,5,6,7-tetrahydrothieno[2,3-c]pyridine-3-carboxamide] |
| < 25 | < 25 | 25 to 50 | CN(C)[C@@H]1CCN(Cc2cc(NC(=O)c3csc4c3CCN(C(=O)c3cnc5ccccn35)C4)cc(C(F)(F)F)c2)C1 [Example 45, (R)-N-(3-((3-(dimethylamino)pyrrolidin-1-yl)methyl)-5-(trifluoromethyl)-phenyl)-6-(imidazo[1,2-a]pyridine-3-carbonyl)-4,5,6,7-tetrahydrothieno[2,3-c]pyridine-3-carboxamide] |
| < 25 | < 25 | 25 to 50 | CC(C)(C)c1coc(NC(=O)c2csc3c2CCN(C(=O)c2cnc4ccccn24)C3)n1 [Example 47, N-(4-(tert-butyl)oxazol-2-yl)-6-(imidazo[1,2-a]pyridine-3-carbonyl)-4,5,6,7-tetrahydrothieno[2,3-c]pyridine-3-carboxamide] |
| < 25 | 25 to 50 | 50 to 80 | CN(C)C1CCN(Cc2cc(NC(=O)c3csc4c3CCN(C(=O)c3cnc5ccccn35)C4)cc(C(F)(F)F)c2)CC1 [Example 48, N-(3-((4-(dimethylamino)piperidin-1-yl)methyl)-5-(trifluoromethyl)phenyl)-6-(imidazo[1,2-a]pyridine-3-carbonyl)-4,5,6,7-tetrahydrothieno[2,3-c]pyridine-3-carboxamide] |
| < 25 | < 25 | < 25 | O=C(Nc1cc(CN2CCC23COC3)cc(C(F)(F)F)c1)c1csc2c1CCN(C(=O)c1cnc3ccccn13)C2 [Example 49, N-(3-((6-oxa-1-azaspiro[3.3]heptan-1-yl)methyl)-5-(trifluoromethyl)phenyl)-6-(imidazo[1,2-a]pyridine-3-carbonyl)-4,5,6,7-tetrahydrothieno[2,3-c]pyridine-3-carboxamide] |
| < 25 | < 25 | 25 to 50 | O=C(Nc1cc(CN2CC3CC2CO3)cc(C(F)(F)F)c1)c1csc2c1CCN(C(=O)c1cnc3ccccn13)C2 (stereo not drawn) [Example 50, N-(3-((2-oxa-5-azabicyclo[2.2.1]heptan-5-yl)methyl)-5-(trifluoromethyl)phenyl)-6-(imidazo[1,2-a]pyridine-3-carbonyl)-4,5,6,7-tetrahydrothieno[2,3-c]pyridine-3-carboxamide] |
| < 25 | < 25 | 25 to 50 | O=C(Nc1cc(CN2CCC(F)C2)cc(C(F)(F)F)c1)c1csc2c1CCN(C(=O)c1cnc3ccccn13)C2 (stereo not drawn) [Example 51, N-(3-((3-fluoropyrrolidin-1-yl)methyl)-5-(trifluoromethyl)phenyl)-6-(imidazo[1,2-a]pyridine-3-carbonyl)-4,5,6,7-tetrahydrothieno[2,3-c]pyridine-3-carboxamide] |
